In patent publication US20150143553A1, “Methods And Compositions Comprising A Drosophila Model Of Amyotrophic Lateral Sclerosis” (priority 2013, published 2015):
Structures can show the parent of a compound that is named as a salt.

How the values were obtained:
Type in all cases: in vivo
[1] = test system: Drosophila larvae expressing G298S TDP-43 in motor neurons; experiment: Drug screen: rescue of lethality caused by G298S TDP-43 expression in motor neurons (D42 Gal4)
Source text: (§1) […] Larvae expressing TDP-43 (wild type or mutant, as shown) are raised on drug containing food.
(§2) […] Larvae expressing TDP-43 (wt or mutant) were raised on drug containing food.
(§3) Using a Drosophila model of ALS based on TDP-43 that recapitulates several aspects of the disease pathophysiology (33, 35), a drug screen aimed at identifying FDA approved compounds with neuroprotective potential in vivo were designed (FIG. 37A). […] This phenotype was used to screen for drug candidates with therapeutic potential as determined by their ability to rescue pupal lethality and produce viable adults with extended wings (FIG. 37A).
Larvae expressing TDP-43 in motor neurons (D42>TDP-43) were raised on fly food containing different amounts of drug (1, 10 and 25 μM, see Materials and Methods for details) or Dimethyl Sulfoxide (DMSO) as vehicle control (FIG. 37B, C).
(§4) UAS TDP-43 males were crossed with D42-Gal4 female virgins on fly food containing either DMSO or pioglitazone. For DMSO controls, the same volume of DMSO as the corresponding drug concentration was added. Bromophenol blue was added to a final concentration of approximately 0.02% to ensure homogeneity. Crosses were made on drug food with 3 female virgins and 2 males in each vial, and were maintained at 25° C. unless noted. The parents were discarded after 5-7 days then the vials were screened for adult progeny with straight wings from day 14 to day 25. All adults were screened for TDP-43 expression by visualizing the YFP tag. Total number of pupae was counted on day 25. Percent survival was calculated using the formula (total number of straight-winged adults/total number of pupae)×100. All experiments were performed in triplicate.

[2] = test system: Drosophila larvae expressing D169G TDP-43 in motor neurons; experiment: Drug screen: rescue of lethality caused by D169G TDP-43 expression in motor neurons (D42 Gal4); details: transgene D169G; 50 μM in fly food
Method: 1200 FDA approved drugs from the Prestwick collection were fed to flies expressing TDP-43 at an initial concentration of 50 μM (as previously described in Chang et al., 2008).
FDA approved drugs from the Prestwick collection (200 mM in DMSO) are mixed with yeast-cornmeal based food and a bromophenol blue (as a mixing indicator) at a final concentration of 50 μM. Larvae expressing TDP-43 (wild type or mutant, as shown) are raised on drug containing food.
FDA approved drugs from the Prestwick collection (200 mM in DMSO) were mixed with yeast-cornmeal based food and a bromophenol blue (as a mixing indicator) at a final concentration of 50 μM. Larvae expressing TDP-43 (wt or mutant) were raised on drug containing food.
as §3

[3] = test system: Drosophila larvae expressing wild-type TDP-43 in motor neurons; experiment: Drug screen: rescue of lethality caused by wild-type TDP-43 expression in motor neurons (D42 Gal4); details: transgene WT2
Source text: as §1, §2
Using a Drosophila model of ALS based on TDP-43 that recapitulates several aspects of the disease pathophysiology (33, 35), a drug screen aimed at identifying FDA approved compounds with neuroprotective potential in vivo were designed (FIG. 37A). […] This phenotype was used to screen for drug candidates with therapeutic potential as determined by their ability to rescue pupal lethality and produce viable adults with extended wings (FIG. 37A). […]
as §4

[4] = transgene G298S, 30 μM in fly food
[5] = transgene G298S, 50 μM in fly food

Nc1nc(NC2CC2)c2ncn([C@H]3C=C[C@@H](CO)C3)c2n1 [Abacavir Sulfate]
Preliminary rescue result: adults with normal wings [1, 4]: 1 Adult Normal Wings Adults

CC(=O)NCCCS(=O)(=O)[O-].CC(=O)NCCCS(=O)(=O)[O-].[Ca+2] [Acamprosate Calcium]
Preliminary rescue result: adults with normal wings [2]: 1 Adult Normal Wings Adults

NCCCNCCSP(=O)(O)O [Amifostine]
Preliminary rescue result: adults with normal wings [1, 5]: 1 Adult Normal Wings Adults

CN(C)CCC=C1c2ccccc2CCc2ccccc21.Cl [Amitryptiline Hydrochloride]
Preliminary rescue result: adults with normal wings [1, 5]: 1 Adult Normal Wings Adults

c1ccc(-c2ccc(C(c3ccccc3)n3ccnc3)cc2)cc1 (stereo not shown) [Bifonazole]
Preliminary rescue result: adults with normal wings ([1]; transgene G298S4, 30 μM in fly food): 1 Adult Normal Wings Adults

C[C@H](CCC(=O)O)[C@H]1CC[C@H]2[C@@H]3[C@H](O)C[C@@H]4C[C@H](O)CC[C@]4(C)[C@H]3CC[C@]12C [Chenodiol]
Preliminary rescue result: adults with normal wings [1, 5]: 1 Adult Normal Wings Adults

Oc1c(Cl)cc(Cl)c2cccnc12 [Chloroxine]
Preliminary rescue result: adults with normal wings [2]: 1 Adult Normal Wings Adults

CCn1nc(C(=O)O)c(=O)c2cc3c(cc21)OCO3 [Cinoxacin]
Preliminary rescue result: adults with normal wings [1, 4]: 1 Adult Normal Wings Adults

CCOC(=O)C(C)(C)Oc1ccc(Cl)cc1 [Clofibrate]
Preliminary rescue result: adults with normal wings [2]: 1 Adult Normal Wings Adults

CN1CCN(C2=Nc3cc(Cl)ccc3Nc3ccccc32)CC1 [Clozapine]
Preliminary rescue result: adults with normal wings [1, 5]: 1 Adult Normal Wings Adults

CN(C)CCC=C1c2ccccc2C=Cc2ccccc21 [Cyclobenzaprine HCl]
Preliminary rescue result: adults with normal wings [2]: 1 Adult Normal Wings Adults

N#CC(c1ccc(Cl)cc1)c1c(Cl)cc(-n2ncc(=O)[nH]c2=O)cc1Cl (stereo not shown) [Diclazuril]
Preliminary rescue result: adults with normal wings [1, 4]: 1 Adults | Preliminary rescue result: adults with normal wings ([3]; 30 μM in fly food): 2 Adults

CCN(CC)C(=O)/C(C#N)=C/c1cc(O)c(O)c([N+](=O)[O-])c1 [Entacapone]
Preliminary rescue result: adults with normal wings [1, 5]: 5 Adult Normal Wings Adults

CN1CCN(c2c(F)cc3c(=O)c(C(=O)O)cn(CCF)c3c2F)CC1 [Fleroxacin]
Preliminary rescue result: adults with normal wings [1, 4]: 1 Adults | Preliminary rescue result: adults with normal wings ([3]; 30 μM in fly food): 3 Adults

O=C(O)c1ccccc1Nc1cccc(C(F)(F)F)c1 [Flufenamic Acid]
Preliminary rescue result: adults with normal wings [1, 5]: 1 Adult Normal Wings Adults

COc1ccc(-c2ccc(=N)n(CCCC(=O)O)n2)cc1 [Gabazine]
Preliminary rescue result: adults with normal wings [1, 5]: 2 Adults Straight Wings | Preliminary rescue result: adults with normal wings ([3]; 50 μM in fly food): 4 Adults Normal Wings,

COc1cc2ncnc(Nc3ccc(F)c(Cl)c3)c2cc1OCCCN1CCOCC1 [Gefitinib]
Preliminary rescue result: adults with normal wings [1, 5]: 1 Adult Normal Wings Adults

C[N+]1(C)CCOC(O)(c2ccc(-c3ccc(C4(O)C[N+](C)(C)CCO4)cc3)cc2)C1.[Br-].[Br-] (stereo not shown) [Hemicholinium Bromide]
Preliminary rescue result: adults with normal wings [1, 5]: 1 Adult Normal Wings Adults

CCOC(=O)C1=C(C)NC(C)=C(C(=O)OCC)C1c1ccccc1/C=C/C(=O)OC(C)(C)C [Lacidipine]
Preliminary rescue result: adults with normal wings [1, 5]: 7 Adults | Preliminary rescue result: adults with normal wings ([3]; 50 μM in fly food): 3 Adults

Nc1ccn([C@@H]2CS[C@H](CO)O2)c(=O)n1 [Lamivudine]
Preliminary rescue result: adults with normal wings [1, 5]: 2 Adults Normal Wings

C[N+]1(C)CCCC(OC(=O)C(O)(c2ccccc2)c2ccccc2)C1 (stereo not shown) [Mepenzolate Bromide]
Preliminary rescue result: adults with normal wings [1, 5]: 2 Adult Normal Wings Adults

CCC1(c2cccc(O)c2)CCCCN(C)C1 (stereo not shown) [Meptazinol Hydrochloride]
Preliminary rescue result: adults with normal wings [1, 4]: 1 Adult Normal Wing Adults

C1N2CN3CN1CN(C2)C3 [Methenamine]
Preliminary rescue result: adults with normal wings [1, 4]: 1 Adults | Preliminary rescue result: adults with normal wings ([3]; 30 μM in fly food): 2 Adults

Cc1ccccc1C(OCCN(C)C)c1ccccc1 (stereo not shown) [Orphenadrine]
Preliminary rescue result: adults with normal wings [1, 5]: 1 Adult Normal Wings Adults

CN(C)CCC(c1ccccc1)c1ccccn1 (stereo not shown) [Pheniramine Maleate]
Preliminary rescue result: adults with normal wings [1, 5]: 1 Adult Normal Wings Adults

CCCN(CCC)C(=O)C(CCC(=O)O)NC(=O)c1ccccc1 (stereo not shown) [Proglumide]
Preliminary rescue result: adults with normal wings [1, 5]: 3 Adults Normal Wings | Preliminary rescue result: adults with normal wings ([3]; 50 μM in fly food): 1 Adult Normal Wings, Adults

CN(Cc1cc(Br)cc(Br)c1N)C1CCCCC1.Cl [Romhexine Hydrochloride]
Preliminary rescue result: adults with normal wings [1, 4]: 1/2 Adult Normal Wings

Cn1c([N+](=O)[O-])cnc1COC(N)=O [Ronidazole]
Preliminary rescue result: adults with normal wings [1, 4]: 1 Adult Normal Wings Adults

CCCCCCCCNC(C)C(O)c1ccc(SC(C)C)cc1 (stereo not shown) [Suloctidil]
Preliminary rescue result: adults with normal wings ([3]; 50 μM in fly food): 6 Adults Normal Wings

CCN1CCCC1CNC(=O)c1cc(S(N)(=O)=O)ccc1OC (stereo not shown) [Sulpiride]
Preliminary rescue result: adults with normal wings ([3]; 50 μM in fly food): 1 Adult Normal Wings Adults

Nc1c2c(nc3ccccc13)CCCC2 [Tacrine Hydrochloride Hydrate]
Preliminary rescue result: adults with normal wings ([3]; 50 μM in fly food): 4 Adults Normal Wings

COc1cc2nc(N3CCN(C(=O)C4CCCO4)CC3)nc(N)c2cc1OC.Cl (stereo not shown) [Terazosin HC1]
Preliminary rescue result: adults with normal wings ([3]; 30 μM in fly food): 3 Adult Normal Wings Adults

CC1(C)S[C@@H]2[C@H](NC(=O)[C@H](C(=O)[O-])c3ccsc3)C(=O)N2[C@H]1C(=O)[O-].[Na+].[Na+] [Ticarcillin Sodiim]
Preliminary rescue result: adults with normal wings ([3]; 30 μM in fly food): 1 Adult Normal Wings Adults

CN(C)CCOc1ccc(/C(=C(/CCCl)c2ccccc2)c2ccccc2)cc1 [Toremifene]
Preliminary rescue result: adults with normal wings ([3]; 30 μM in fly food): 1 Adult Normal Wings Adults

NC1CCN(c2nc3c(cc2F)c(=O)c(C(=O)O)cn3-c2ccc(F)cc2F)C1 (stereo not shown) [Tosufloxacin Hydrochloride]
Preliminary rescue result: adults with normal wings ([3]; 50 μM in fly food): 3 Adult Normal Wings Adults

CCCCNc1c(C(=O)OCC)c(C)nc2c1cnn2CC [Tracazolate Hydrochloride]
Preliminary rescue result: adults with normal wings ([3]; 30 μM in fly food): 1 Adult Normal Wings Adults

O=c1n(CCCN2CCN(c3cccc(Cl)c3)CC2)nc2ccccn12 [Trazodone]
Preliminary rescue result: adults with normal wings [1, 5]: 1 Adult Normal Wings Adults

COc1ccccc1N1CCN(CCCNc2cc(=O)n(C)c(=O)n2C)CC1 [Urapidil Hydrochloride]
Preliminary rescue result: adults with normal wings ([3]; 30 μM in fly food): 1 Adult Normal Wings Adults

C[C@H](CCC(=O)O)[C@H]1CC[C@H]2[C@@H]3[C@@H](O)C[C@@H]4C[C@H](O)CC[C@]4(C)[C@H]3CC[C@]12C [Urosiol]
Preliminary rescue result: adults with normal wings ([3]; 30 μM in fly food): 2 Adult Normal Wings Adults

CCCC(CCC)C(=O)O [Valproic Acid]
Preliminary rescue result: adults with normal wings [1, 4]: 1 Adults | Preliminary rescue result: adults with normal wings ([3]; 30 μM in fly food): 2 Adults

CCCc1nc(C)c2c(=O)[nH]c(-c3cc(S(=O)(=O)N4CCN(CC)CC4)ccc3OCC)nn12 [Vardenafil]
Preliminary rescue result: adults with normal wings ([3]; 50 μM in fly food): 3 Adult Normal Wings Adults

COc1ccc(C(CN(C)C)C2(O)CCCCC2)cc1 (stereo not shown) [Venlafaxine]
Preliminary rescue result: adults with normal wings [1, 5]: 1 Adult Normal Wings Adults

O=C(NCCNCC(O)COc1ccc(O)cc1)N1CCOCC1.O=C(NCCNCC(O)COc1ccc(O)cc1)N1CCOCC1.O=C(O)/C=C/C(=O)O (stereo not shown) [Xamoterol HemifiμMarate]
Preliminary rescue result: adults with normal wings [1, 4]: 1 Adult Normal Wing Adults

CCN(C(C)=O)c1cccc(-c2ccnc3c(C#N)cnn23)c1 [Zaleplon]
Preliminary rescue result: adults with normal wings ([3]; 50 μM in fly food): 1 Adult Normal Wings Adults

COc1cc(-c2ccc(=O)[nH]n2)ccc1OC(F)F [Zardaverine]
Preliminary rescue result: adults with normal wings ([3]; 30 μM in fly food): 1 Adult Normal Wings Adults

Cc1cc(CC(=O)[O-])n(C)c1C(=O)c1ccc(Cl)cc1.O.O.[Na+] [Zomepirac Na Salt]
Preliminary rescue result: adults with normal wings ([3]; 30 μM in fly food): 3 Adult Normal Wings Adults

CCCc1nc2c(C)cc(-c3nc4ccccc4n3C)cc2n1Cc1ccc(-c2ccccc2C(=O)O)cc1 [′Telmisartan]
Preliminary rescue result: adults with normal wings ([3]; 30 μM in fly food): 2/2 Adult Normal Wings

Carbinoxamine Maleate Salt
Preliminary rescue result: adults with normal wings ([3]; 30 μM in fly food): 1 Adult Normal Wings Adults

Pyrantel Tartrate
Preliminary rescue result: adults with normal wings [1, 5]: 1 Adult Normal Wings Adults

Thioproperazine Dimesylate
Preliminary rescue result: adults with normal wings ([3]; 50 μM in fly food): 1 Adult Normal Wings Adults

Verteporfin
Preliminary rescue result: adults with normal wings ([3]; 30 μM in fly food): 1 Adult Normal Wings Adults
